Laboratory results published in publication PMC10787067, “EBF2 Links KMT2D‐Mediated H3K4me1 to Suppress Pancreatic Cancer Progression via Upregulating KLLN” (Advanced Science, 2023).
Positions count from the first letter of the chain named. Names may count otherwise.

What was measured:
[1] = biological target: recombinant His-tagged EBF2 fusion protein (human) (UniProt Q9HAK2); assay: MST; NT-647-NHS-labelled EBF2 at 100 nM in PBS with 0.05% Tween-20, pH 7.4; peptides 10 nM to 500 uM; Monolith NT.115
[2] = system: EBF2; assay: Peptide pull-down with SW1990 and PANC-1 protein extracts; type: binding, Human; details: biotin-labeled peptides, protein extracts from SW1990 and PANC-1 cells; in vitro; Figure 1B
Description: Unmodified histone 3 (H3), H3K4me1 peptides were incubated with nuclear extract of SW1990 cells, separated by SDS‐PAGE gel, and subjected to mass spectrometry. Factors specifically associating with H3K4me1 were screened by peptide pulldown coupled with mass spectrometry analysis. Mass spectrometry‐based proteomic analysis yielded a plethora of putative H3K4me1‐associated proteins, including many known histone or DNA modifiers, readers, and chromatin remodelers (Table S1, Supporting Information). Given that KMT2D executes its antitumor function via catalyzing the formation of H3K4me1 in pancreatic cancer, we explored the genes associated with H3K4me1.
The product was separated by sodium dodecyl sulfate‐polyacrylamide gel electrophoresis (SDS‐PAGE) with silver staining. Protein bands of interest were excised and subjected to electrospray‐ion trap tandem mass spectrometry (LCQ‐Deca, Finnigan).

[3] = biological target: T1, His‐EBF2 (Homo sapiens, UniProt Q9HAK2); assay: Peptide pull-down with purified His-EBF2 fusion protein; type: binding; details: purified His-EBF2 expressed in E. coli; Figure 1C
T1 construct: His‐EBF2 plasmid was constructed by inserting the CDS of EBF2 into PET‐28a vector; His; made in house; host or cells: E. coli BL21 (DE3)
T1 sequence (Q9HAK2 1-575): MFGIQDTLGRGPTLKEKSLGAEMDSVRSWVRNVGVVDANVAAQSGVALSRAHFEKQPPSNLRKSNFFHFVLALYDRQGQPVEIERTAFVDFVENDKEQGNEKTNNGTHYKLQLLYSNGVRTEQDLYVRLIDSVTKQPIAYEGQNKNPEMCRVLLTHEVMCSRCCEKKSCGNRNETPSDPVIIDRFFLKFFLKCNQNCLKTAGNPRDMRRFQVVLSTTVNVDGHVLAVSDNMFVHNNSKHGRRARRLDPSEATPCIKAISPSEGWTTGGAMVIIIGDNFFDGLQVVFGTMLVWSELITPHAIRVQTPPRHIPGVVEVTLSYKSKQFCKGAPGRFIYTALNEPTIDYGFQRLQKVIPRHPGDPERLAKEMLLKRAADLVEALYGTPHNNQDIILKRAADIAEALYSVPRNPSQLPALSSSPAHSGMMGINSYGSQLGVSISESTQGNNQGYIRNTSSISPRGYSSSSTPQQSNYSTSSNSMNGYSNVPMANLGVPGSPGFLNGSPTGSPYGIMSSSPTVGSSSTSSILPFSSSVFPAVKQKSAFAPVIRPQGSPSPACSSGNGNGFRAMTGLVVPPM
Description: The CDS region of EBF2 gene was inserted into pET‐28a plasmid to express recombinant His‐tagged EBF2 fusion protein (His‐EBF2) in E. coli (Figure 1C).
His‐EBF2 plasmid was constructed by inserting the CDS of EBF2 into PET‐28a vector, transformed into E. coli BL21 (DE3), and cultured with isopropyl‐β‐D‐thiogalactoside (IPTG; Beyotime) at 16 °C for 12 h, until the optical density (OD600) reached 0.5–0.6. BL21 cells were collected and sonicated in cold PBS buffer, and His‐fusion proteins were purified with High Affinity Nickel beads (Genscript, Nanjing, China). The purity of His‐fusion proteins was evaluated by SDS‐PAGE.

[4] = system: His‐EBF2 fusion protein; assay: Isothermal titration calorimetry (ITC); type: binding; details: Figure 1E
Description: His‐EBF2 plasmid was constructed by inserting the CDS of EBF2 into PET‐28a vector, transformed into E. coli BL21 (DE3), and cultured with isopropyl‐β‐D‐thiogalactoside (IPTG; Beyotime) at 16 °C for 12 h, […]. BL21 cells were collected and sonicated in cold PBS buffer, and His‐fusion proteins were purified with High Affinity Nickel beads (Genscript, Nanjing, China). The purity of His‐fusion proteins was evaluated by SDS‐PAGE.
A MicroCal ITC‐200 system (Malvern Instruments Ltd., UK) was used for ITC assay. Briefly, the synthesized peptides (Genscript) and proteins were all subjected to extensive dialysis against PBS. Peptides at a concentration of 1 mM were loaded into the ITC syringe, and proteins at a concentration of 100 µM into the ITC cell. Then, every 2 µL of peptide was automatically injected into the cell at 25 °C. The results of binding isotherms were analyzed using the Origin 7.0 software package (Origin Lab).

[5] = system: H3K4me1; assay: Co-IP of Flag-tagged EBF2-WT or EBF2-H239A with H3K4me1 in SW1990 cells; type: binding, Human; details: Co-IP on SW1990 cells; Figure S1B
Description: Co‐immunoprecipitation assay was performed as described previously.^[ [61] ^] Briefly, SW1990 cells were transfected with indicated constructs or treated with GSK‐LSD1, washed with cold phosphate buffered saline (PBS), and lysed with cold cell lysis buffer. Then, the lysates were incubated with appropriate specific antibodies or normal rabbit IgG at 4 °C overnight in constant rotation, followed by the addition of protein A/G Sepharose beads and incubation for 2 h at 4 °C. The beads were then washed five times by the lysis buffer. Bead‐bound proteins were resolved by SDS‐PAGE and detected by immunoblotting using indicated antibodies.

Molecule “H3K4me1 peptide (C-terminal biotin-tagged 19 amino acid N-terminal peptide of histone H3, mono-methylated on Lys 4) (from UniProt P68431 2-20)” has a Kd [1] of 7.37 µM.

For `CNCCCC[C@H](NC(=O)[C@@H](NC(=O)[C@H](CCCNC(=N)N)NC(=O)[C@H](C)N)[C@@H](C)O)C(=O)N[C@@H](CCC(N)=O)C(=O)N[C@H](C(=O)N[C@@H](C)C(=O)N[C@@H](CCCNC(=N)N)C(=O)N[C@@H](CCCCN)C(=O)N[C@@H](CO)C(=O)N[C@H](C(=O)NCC(=O)NCC(=O)N[C@@H](CCCCN)C(=O)N[C@@H](C)C(=O)N1CCC[C@H]1C(=O)N[C@@H](CCCNC(=N)N)C(=O)N[C@@H](CCCCN)C(=O)N[C@@H](CCC(N)=O)C(=O)O)[C@@H](C)O)[C@@H](C)O` [H3K4me1], the “preferential binding of EBF2 to peptide” value [2] was “preferential binding of EBF2 to H3K4me1 over H3K4me3”, the “pull-down of purified His-EBF2 by peptide” value [3] was “pulled down by H3K4me1 peptide” and the “affinity of His-EBF2 to peptide, in words” value [4] was “strong affinity”.

B1: EBF2‐H239A: Flag-tagged EBF2-H239A; H239 is the site for H3K4me1 binding to EBF2 protein (protein)
chain: T1 sequence (Q9HAK2 1-575) with H239A
B1 was tested, and the “ability to bind H3K4me1 compared with EBF2-WT” value [5] was “significantly weaker than that of EBF2‐WT”.
